Results reported in article PMC10536189 (Microorganisms, 2023).
Read-outs that look alike come from different tables or passages of the source.

Test system: M. tuberculosis
Format: cell-based, Mycobacterium tuberculosis (laboratory strain H37Rv)
Details: for Time to Positivity (Days.Hours) Experiment 2a / Time to Positivity (Days.Hours) Experiment 2b: diluted inoculum; for Time to Positivity (Days.Hours) Experiment 2a: technical repeat 2a, TB control (no peptide) 15.01; for Time to Positivity (Days.Hours) Experiment 2b: technical repeat 2b, TB control (no peptide) 15.20; for Time to Positivity (Days.Hours) Experiment 1a / Time to Positivity (Days.Hours) Experiment 1b: less diluted inoculum; for Time to Positivity (Days.Hours) Experiment 1a: technical repeat 1a, TB control (no peptide) 7.02; for Time to Positivity (Days.Hours) Experiment 1b: technical repeat 1b, TB control (no peptide) 7.01; for Average % Faster than Control: negative = slower
[1] = peptide 10 µg/mL, overall average of the averages of experiments 1a/1b and 2a/2b
[2] = crude peptide 10 µg/mL, average of experiments 1 and 2
[3] = crude peptide 10 µg/mL, MGIT, independent experiment 1, Control (TB only) 11.10, inoculum emulsified through G25 needle
[4] = crude peptide 10 µg/mL, MGIT, independent experiment 2, Control (TB only) 9.10, inoculum emulsified through G25 needle

Substance	Time to Positivity (Day.Hours) Experiment 1	Time to Positivity (Day.Hours) Experiment 2	Average % Faster than Control [2]	also measured
76: peptide from the authors' library (VRWRIRVAVIRA) [Peptide 76]				Time to Positivity (Days.Hours) Experiment 2a (peptide 10 µg/mL, MGIT): 16.08 Days.Hours; Time to Positivity (Days.Hours) Experiment 2b (peptide 10 µg/mL, MGIT): 16.14 Days.Hours; Time to Positivity (Days.Hours) Experiment 1a (peptide 10 µg/mL, MGIT): 6.13 Days.Hours; Time to Positivity (Days.Hours) Experiment 1b (peptide 10 µg/mL, MGIT): 6.16 Days.Hours; Average % Faster than Control [1]: −1.4%
77: peptide from the authors' library (VRLRIRVAVIRA) [Peptide 77]				Time to Positivity (Days.Hours) Experiment 2a (peptide 10 µg/mL, MGIT): 14.22 Days.Hours; Time to Positivity (Days.Hours) Experiment 2b (peptide 10 µg/mL, MGIT): 15.03 Days.Hours; Time to Positivity (Days.Hours) Experiment 1a (peptide 10 µg/mL, MGIT): 6.14 Days.Hours; Time to Positivity (Days.Hours) Experiment 1b (peptide 10 µg/mL, MGIT): 6.04 Days.Hours; Average % Faster than Control [1]: 5.0%
ALKAALLAILKIVRVI [CM-3/Designed]	11.04 Day.Hours	8.03 Day.Hours	8.0%	
Bombolitin V/Bee: naturally occurring peptide, APD3, bee (INVLGILGLLGKALSHL)	10.22 Day.Hours	8.13 Day.Hours	6.8%	
CM15/Bee venom: peptide from APD3, bee venom (KWKLFKKIGAVLKVL)	10.19 Day.Hours	8.01 Day.Hours	10.0%	
Eumenitin/Wasp: naturally occurring peptide, APD3, wasp (LNLKGIFKKVASLLT)	11.00 Day.Hours	8.08 Day.Hours	7.6%	
FFGSVLKLIPKIL [Temporin-PTa/Frog, naturally occurring peptide, APD3, frog]			6.3%	Time to Positivity (Day.Hours) Experiment 1 [3]: 11.07 Day.Hours; Time to Positivity (Day.Hours) Experiment 2 [4]: 8.08 Day.Hours
FFHHIFRGIVHVGKTI [Piscidin 1/Fish *, fragment of naturally occurring peptide, APD3, fish]			7.8%	Time to Positivity (Day.Hours) Experiment 1 [3]: 10.18 Day.Hours; Time to Positivity (Day.Hours) Experiment 2 [4]: 8.12 Day.Hours
FFIYVWRRR [P8/Designed *]	11.16 Day.Hours	8.22 Day.Hours	1.6%	
FFPFLLGALGSLLPKIF [Temporin-SN1/Frog]	10.22 Day.Hours	8.23 Day.Hours	4.6%	
FFPYAALKWLRKLLKK [P-04/Tunicate]	11.02 Day.Hours	8.08 Day.Hours	7.2%	
FGKILGVGKKVLCGLS [Odorranain-H1/Frog *]	10.19 Day.Hours	8.03 Day.Hours	9.6%	
FIFIRWLLKLGHHGRA [Salusin-beta/Scorpion *]	10.18 Day.Hours	8.03 Day.Hours	9.8%	
FIITGLVRGLTKLF [Temporin-LTb/Frog]	11.07 Day.Hours	8.06 Day.Hours	6.7%	
FITLLLRKFICSITKKC [Brevinin-1Ta/Frog]	11.07 Day.Hours	8.05 Day.Hours	7.0%	
FLGALAKIISGIF [Temporin-1TSa/Frog]	11.00 Day.Hours	8.02 Day.Hours	8.9%	
FLGVVFKLASKVFPAV [D28/Designed *]	11.02 Day.Hours	8.09 Day.Hours	7.0%	
FLPLFASLIGKLL [Temporin-1Cb/Frog]	11.08 Day.Hours	8.06 Day.Hours	6.6%	
FLPLIAGLIGKLF [Peptide B9/Frog]	10.19 Day.Hours	8.01 Day.Hours	10.0%	
FLPLIGRVLSGIL [Temporin A/Frog, naturally occurring peptide, APD3, frog]			3.7%	Time to Positivity (Day.Hours) Experiment 1 [3]: 11.02 Day.Hours; Time to Positivity (Day.Hours) Experiment 2 [4]: 9.00 Day.Hours
FLPLLASLFSRLF [Temporin-1Oc/Frog, naturally occurring peptide, APD3, frog]			3.8%	Time to Positivity (Day.Hours) Experiment 1 [3]: 11.10 Day.Hours; Time to Positivity (Day.Hours) Experiment 2 [4]: 8.17 Day.Hours
FLPLVTMLLGKLF [Temporin-1Vc/Frog]	11.12 Day.Hours	8.21 Day.Hours	2.5%	

Substance	Time to Positivity (Day.Hours) Experiment 1	Time to Positivity (Day.Hours) Experiment 2	Average % Faster than Control [2]	also measured
FLSIIAKVLGSLF [Temporin 1Vb/Frog]	11.10 Day.Hours	8.08 Day.Hours	5.8%	
FLSLIPSLVGGSISAFK [TsAP-1/Scorpion]	11.07 Day.Hours	8.05 Day.Hours	7.0%	
FLSTIWNGIKSLL [Pantinin-3/Scorpion]	11.08 Day.Hours	8.23 Day.Hours	2.8%	
FVQWFSKFLGRIL [Temporin L/Frog]	11.06 Day.Hours	8.05 Day.Hours	7.1%	
GAILPLALGALKNLIK [Hylin a1/Frog]	11.14 Day.Hours	8.02 Day.Hours	6.3%	
GFGMALKLLKKVL [Macropin 1/Wasp]	10.12 Day.Hours	8.07 Day.Hours	10.0%	
GFKRIVQRIKDFLRNLV [GF-17/Human *]	10.02 Day.Hours	8.07 Day.Hours	11.8%	
GFWGKLFKLGLHGIGL [NRC-15/Flounder]	11.02 Day.Hours	8.14 Day.Hours	5.9%	
GLGSLVGNALRIGAKLL [CPF-AM4/Frog]	10.17 Day.Hours	8.06 Day.Hours	9.3%	
GRLCYCRGWICFCVGR [Protegrin 4/Pig *]	11.11 Day.Hours	8.01 Day.Hours	7.1%	
HFLGTLVNLAKKIL [Temporin-1DRa/Frog, naturally occurring peptide, APD3, frog]			8.5%	Time to Positivity (Day.Hours) Experiment 1 [3]: 10.18 Day.Hours; Time to Positivity (Day.Hours) Experiment 2 [4]: 8.09 Day.Hours
ILGAILPLVSGLLSNKL [Alyteserin-2b/Toad]	11.18 Day.Hours	8.02 Day.Hours	5.6%	
ILPFLAGLFSKIL [Pelophylaxin-4/Frog]	11.05 Day.Hours	8.18 Day.Hours	4.5%	
ILPWKWPWWPWRR [Indolicidin/Cow]	11.03 Day.Hours	8.18 Day.Hours	4.8%	
INLKAIAALVKKLL [Mastoparan-VT6/Wasp]	10.21 Day.Hours	8.04 Day.Hours	9.0%	
IRLHRLYTWKATIYTR [PP13/Wasp *]	10.17 Day.Hours	8.02 Day.Hours	10.2%	
IsCT2/Scorpion: naturally occurring peptide, APD3, scorpion (IFGAIWNGIKSLF)	10.23 Day.Hours	8.21 Day.Hours	4.9%	
KKLLGKLLKKLGKLLL [GLK-19/Designed *]	10.17 Day.Hours	8.04 Day.Hours	9.7%	
KRRWRIWLV [P9/Designed]	11.10 Day.Hours	8.14 Day.Hours	4.4%	
LFKLLGKIIHHVGNFV [Clavanin E/Sea squirt, naturally occurring peptide, APD3, sea squirt]			5.8%	Time to Positivity (Day.Hours) Experiment 1 [3]: 11.05 Day.Hours; Time to Positivity (Day.Hours) Experiment 2 [4]: 8.12 Day.Hours
LLAGLPKLLCLFFKKC [Brevinin-1DYc/Frog]	11.10 Day.Hours	8.16 Day.Hours	4.0%	
